“Also recorded” adds a separate entry of the source.
What was measured:
Type in all cases: cell-based, human
Conditions in all cases: treated 1 h (menadione 100 μmol/L, 30 min)
DLD‐1 CRC cell line = test: intracellular ROS, CellROX Deep Red flow cytometry, DLD-1
Description: In order to estimate the effect of each inhibitor described above, intracellular reactive oxygen species (ROS) were measured using CellROX™ Deep Red reagent (Molecular Probes). Briefly, cells were seeded on 6‐well plates at 1 × 10^6 cells per well. After cells reached 90% confluence, cells were treated with designated reagents for 1 h. CellROX™ Deep Red reagent was added at a final concentration of 5 μmol/L to the culture medium and then incubated for 30 min at 37°C. Subsequently, the medium was removed and the cells were washed with PBS and detached using 0.25% trypsin‐EDTA. The resulting fluorescence was measured using a FACS Calibur flow cytometer (Becton Dickinson, Franklin Lakes, NJ). Menadione (100 μmol/L) was added 30 min before CellROX™ Deep Red reagent treatment as a reference ROS inducer. […] CD44v9 positivity of CTOS cells was analyzed as follows: Cancer spheroids were dispersed with serial treatments of TrypLE™ (20 min, GIBCO) and Accumax™ (10 min, Innovative Cell Technologies, San Diego, CA). Cell surface CD44v9 was stained with CD44v9 antibody (Cosmobio) as well as PE‐conjugated anti‐rat IgG2a (Becton Dickinson). The fluorescence was measured using a FACS Calibur flow cytometer (Becton Dickinson). […]
One hour after each drug treatment, cells were stained with CellROX DeepRed and intracellular ROS were quantified with FACS. […]

[1] = system: OUMS‐36 embryonic fibroblasts; test: intracellular ROS, CellROX Deep Red flow cytometry, OUMS-36
Description: (§1) In order to estimate the effect of each inhibitor described above, intracellular reactive oxygen species (ROS) were measured using CellROX™ Deep Red reagent (Molecular Probes). Briefly, cells were seeded on 6‐well plates at 1 × 10^6 cells per well. After cells reached 90% confluence, cells were treated with designated reagents for 1 h. CellROX™ Deep Red reagent was added at a final concentration of 5 μmol/L to the culture medium and then incubated for 30 min at 37°C. Subsequently, the medium was removed and the cells were washed with PBS and detached using 0.25% trypsin‐EDTA. The resulting fluorescence was measured using a FACS Calibur flow cytometer (Becton Dickinson, Franklin Lakes, NJ). Menadione (100 μmol/L) was added 30 min before CellROX™ Deep Red reagent treatment as a reference ROS inducer. […] CD44v9 positivity of CTOS cells was analyzed as follows: Cancer spheroids were dispersed with serial treatments of TrypLE™ (20 min, GIBCO) and Accumax™ (10 min, Innovative Cell Technologies, San Diego, CA). Cell surface CD44v9 was stained with CD44v9 antibody (Cosmobio) as well as PE‐conjugated anti‐rat IgG2a (Becton Dickinson). The fluorescence was measured using a FACS Calibur flow cytometer (Becton Dickinson). Since CTOSs contained abundant auto‐fluorescent cells, we defined FL2^+FL1^− cells as authentic PE‐positive (Fig. S4). Thus, CD44v9‐positive rate was defined as FL2^+FL1^−/total live cells and CD44v9‐positive fraction was further gated and split between CD44v9^low and CD44v9^high (Fig. S4), to calculate the mean fluorescent intensity of CD44v9^high fraction.
(§2) One hour after each drug treatment, cells were stained with CellROX DeepRed and intracellular ROS were quantified with FACS. Upper: histogram of fluorescent signal is represented. Lower. representative mean fluorescent intensity scores are shown. Note that without drug treatment (Control), intracellular ROS is higher in OUMS36 and TIG3 (embryonic fibroblasts) but lower in DLD-1 and HCT116 (CRC cell lines). ROS in DLD-1 was increased by auranofin. ROS in HCT116 was increased by all the inhibitors tested. […]

[2] = system: TIG‐3 embryonic fibroblasts; test: intracellular ROS, CellROX Deep Red flow cytometry, TIG-3
Description: as §1, §2

| Structure (SMILES) | intracellular ROS response (DLD‐1 CRC cell line) | intracellular ROS response [1] | intracellular ROS response [2] |
| --- | --- | --- | --- |
| CC[PH](CC)(CC)[Au][S][C@@H]1O[C@H](COC(C)=O)[C@@H](OC(C)=O)[C@H](OC(C)=O)[C@H]1OC(C)=O [Aura, Auranofin] | increased; also recorded: increase of ROS | – | – |
| COc1cc(/C=C/C(=O)N2CCC=CC2=O)cc(OC)c1OC [Pipe, Piperlongumine] | – | no ROS increase | no ROS increase |
